According to patent US20230285402A1, “Compositions and Methods of Modulating Short-Chain Dehydrogenase Activity” (BOARD OF REGENTS OF THE UNIVERSITY OF TEXAS SYSTEM, priority 2013, published 2023):

Experiments:
mice = assay: Bone marrow transplant after 11Gy, SW033291 5 mg/kg IP twice daily: survival and blood/marrow counts; assay type: in vivo, mouse
C57BL/6J mice [1] = assay: Liver regeneration after partial hepatectomy, C57BL/6J mice, SW033291 5 mg/kg IP; assay type: in vivo; settings: 5 mg/kg IP bid; one mouse each
Hepatocyte stability = assay type: in vitro ADME; settings: in words
Method: Time to inhibition refers to the time needed to inhibit the generation of NADH by 15-PGDH from the moment with drug is added into the reaction mix. Delta Tm refers to the shift in melting temperature of recombinant 15-PGDH in the presence of drug (with cofactor NADH also present). Concentration of Full Cell Line Reporter Induction refers to the concentration of drug that needs to be added to reporter cell line to achieve maximal induction of the 15-PGDH-luciferase gene fusion reporter cassette, as measured by luciferase assays. Hepatocyte stability refers to the half-life of compound in the presence of hepatocytes in culture. Toxicity refers to the concentration of compound needed to decrease cell numbers in a cell culture assay.

FVB male mice = assay: Dextran sodium sulfate (DSS) induced colitis, FVB male mice, SW033291 5 mg/kg IP twice daily; assay type: in vivo, mouse
[2] = 21 day toxicity study in FVB mice, daily weights; assay type: in vivo, mouse; settings: 5 mg/kg IP twice daily for 21 days
C57BL/6J female mice = assay: Survival after acetaminophen (Tylenol) 600 mg/kg IP (LD50), C57BL/6J female mice, SW033291 5 mg/kg IP; assay type: in vivo, mouse; settings: for number of mice surviving: first dose immediately after Tylenol
[3] = test system: 15-PGDH-luciferase fusion reporter in V9m, LS174T and V503 cells; assay: 15-PGDH-luciferase fusion reporter induction in colon cancer cell lines; assay type: cell-based; settings: V9m, LS174T, V503
C57BL/6J mice [4] = assay: Competitive transplant of marrow from treated CD45.2 donor mice; assay type: in vivo, mouse; settings: donor 5 mg/kg IP daily for 3 doses; weeks 12 and 16
Method: On day 3 mice were sacrificed, marrow flushed and mixed at a 1:1 ratio with vehicle treated CD45.1 marrow. 2 million whole BM cells were injected into the tail vein of lethally irradiated CD45.1 mice and percent chimerism measured via flow cytometry at weeks 8, 12, 16.

[5] = day 5 after transplant, 500,000 donor cells

Compound: CCCC[S+]([O-])c1sc2nc(-c3cccs3)cc(-c3ccccc3)c2c1N (stereo not shown) [SW033291, 2-(butylsulfinyl)-4-phenyl-6-(thiophen-2-yl)thieno[2,3-b]pyridin-3-amine]
- median survival vs control (mice; 100,000 donor cells): approximate doubling of median survival
- survival at 30 days (mice; 200,000 donor cells): all mice receiving 200,000 donor cells plus SW033291 survived
- survival at 30 days (mice; 500,000 donor cells): all survived
- total platelet count vs control (mice; [5]): significantly higher total platelet count
- total white count vs control (mice; [5]): significantly higher total white count
- platelet count (mice; day 8 after transplant, control 39,500): 77,000
- total white counts vs control (mice; day 12 after transplant): significantly greater total white counts
- hemoglobin level (mice; day 12 after transplant, control 8.3): 11.58
- neutrophil count (mice; day 12 after transplant, control 125): 332
- lymphocyte count vs control (mice; day 18 after transplant): significantly higher
- platelet counts vs control (mice; day 18 after transplant): significantly higher platelet counts
- total white count vs control (mice; day 18 after transplant): significantly higher total white count
- neutrophil count (mice; day 18 after transplant, control 365): 835
- mean SKL marked bone marrow cells (mice; day 18 after transplant, control 967): 4127
- serum ALT values vs control (C57BL/6J mice [1]): lower
- Hepatocyte stability (Hepatocyte stability): Stable > couple hrs
- change from baseline weight vs control (FVB male mice; 22 days of study): greater weight at all time points
- Colon length (FVB male mice; Baseline): 8.4 ± 0.2 cm
- Wt @ sacrifice (FVB male mice; Baseline): 25.9 ± 0.7 gm
- Colon length (FVB male mice; Day 8): 6.6 ± 0.1 cm
- Wt @ sacrifice (FVB male mice; Day 8): 26.4 ± 0.5 gm
- Colon length (FVB male mice; Day 15): 7.5 ± 0.1 cm
- Wt @ sacrifice (FVB male mice; Day 15): 25.2 ± 0.9 gm
- Colon length (FVB male mice; Day 22): 8.6 ± 0.3 cm
- Wt @ sacrifice (FVB male mice; Day 22): 28.2 ± 0.5 gm
- share of ulcer formation prevented (FVB male mice; colonoscopy days 8, 11 and 15): two-thirds
- reduction of length of ulcerated mucosa vs control (FVB male mice; day 15): 61%
- average length of ulcerated mucosa (FVB male mice; day 15, N=6 mice, control 4.48): 1.74 mm per colon section
- MEICS score vs control (FVB male mice; days 8, 11 and 15): significantly less colitis activity
- mouse weight [2]: no evidence for SW033291 reducing mouse weight
- number of mice surviving (C57BL/6J female mice; 0 hrs, 1 dose/daily, cohort of 6): 6
- number of mice surviving (C57BL/6J female mice; 0 hrs, 2 dose/daily, cohort of 6): 6
- Survival (number of mice) (C57BL/6J female mice; 0 hrs, bid from 3 hours prior to acetaminophen, 6 doses, cohort of 6): 6
- Survival (number of mice) (C57BL/6J female mice; 0 hrs, bid from 48 hours prior to acetaminophen, 9 doses, cohort of 12): 12
- number of mice surviving (C57BL/6J female mice; 16 hr, 1 dose/daily, cohort of 6): 6
- number of mice surviving (C57BL/6J female mice; 16 hr, 2 dose/daily, cohort of 6): 6
- Survival (number of mice) (C57BL/6J female mice; 16 hr, bid from 3 hours prior to acetaminophen, 6 doses, cohort of 6): 6
- Survival (number of mice) (C57BL/6J female mice; 16 hr, bid from 48 hours prior to acetaminophen, 9 doses, cohort of 12): 12
- number of mice surviving (C57BL/6J female mice; 24 hrs, 1 dose/daily, cohort of 6): 6
- number of mice surviving (C57BL/6J female mice; 24 hrs, 2 dose/daily, cohort of 6): 6
- Survival (number of mice) (C57BL/6J female mice; 24 hrs, bid from 3 hours prior to acetaminophen, 6 doses, cohort of 6): 5
- Survival (number of mice) (C57BL/6J female mice; 24 hrs, bid from 48 hours prior to acetaminophen, 9 doses, cohort of 12): 12
- Survival (number of mice) (C57BL/6J female mice; 40 hrs, bid from 48 hours prior to acetaminophen, 9 doses, cohort of 12): 11
- number of mice surviving (C57BL/6J female mice; 48 hrs, 2 dose/daily, cohort of 6): 3
- Survival (number of mice) (C57BL/6J female mice; 48 hrs, bid from 3 hours prior to acetaminophen, 6 doses, cohort of 6): 3
- Survival (number of mice) (C57BL/6J female mice; 48 hrs, bid from 48 hours prior to acetaminophen, 9 doses, cohort of 12): 10
- number of mice surviving (C57BL/6J female mice; 64 hrs, 2 dose/daily, cohort of 6): 3
- Survival (number of mice) (C57BL/6J female mice; 64 hrs, bid from 3 hours prior to acetaminophen, 6 doses, cohort of 6): 3
- Survival (number of mice) (C57BL/6J female mice; 64 hrs, bid from 48 hours prior to acetaminophen, 9 doses, cohort of 12): 10
- number of mice surviving (C57BL/6J female mice; 72 hrs, 2 dose/daily, cohort of 6): 3
- Survival (number of mice) (C57BL/6J female mice; 72 hrs, bid from 3 hours prior to acetaminophen, 6 doses, cohort of 6): 3
- Survival (number of mice) (C57BL/6J female mice; 72 hrs, bid from 48 hours prior to acetaminophen, 9 doses, cohort of 12): 10
- number of mice surviving (C57BL/6J female mice; 88 hr, 2 dose/daily, cohort of 6): 3
- Survival (number of mice) (C57BL/6J female mice; 88 hr, bid from 3 hours prior to acetaminophen, 6 doses, cohort of 6): 3
- Survival (number of mice) (C57BL/6J female mice; 88 hr, bid from 48 hours prior to acetaminophen, 9 doses, cohort of 12): 10
- number of mice surviving (C57BL/6J female mice; 96 hr, 2 dose/daily, cohort of 6): 3
- Survival (number of mice) (C57BL/6J female mice; 96 hr, bid from 3 hours prior to acetaminophen, 6 doses, cohort of 6): 3
- Survival (number of mice) (C57BL/6J female mice; 96 hr, bid from 48 hours prior to acetaminophen, 9 doses, cohort of 12): 10
- number of mice surviving (C57BL/6J female mice; 112 hr, 2 dose/daily, cohort of 6): 3
- Survival (number of mice) (C57BL/6J female mice; 112 hr, bid from 3 hours prior to acetaminophen, 6 doses, cohort of 6): 3
- Survival (number of mice) (C57BL/6J female mice; 112 hr, bid from 48 hours prior to acetaminophen, 9 doses, cohort of 12): 10
- number of mice surviving (C57BL/6J female mice; 120 hr, 2 dose/daily, cohort of 6): 3
- Survival (number of mice) (C57BL/6J female mice; 120 hr, bid from 3 hours prior to acetaminophen, 6 doses, cohort of 6): 3
- Survival (number of mice) (C57BL/6J female mice; 120 hr, bid from 48 hours prior to acetaminophen, 9 doses, cohort of 12): 10
- survival vs control mice (C57BL/6J female mice; dosing begun immediately following acetaminophen, once or twice daily, 0-120 hours): No difference
- luciferase activity, in words [3]: increase luciferase activity
- percent blood chimerism of CD45.2 marked cells (C57BL/6J mice [4]): significantly increased
